In one series the target is Chk-1 kinase (Homo sapiens (Human), UniProt O14757). As to the kind of experiment: Chk-1 kinase inhibiting activity (33P-ATP filter assay, CHKtide substrate). The format is biochemical. The procedure:
The compounds of the invention were tested for activity against Chk-1 kinase using the materials and protocols set out below.
Base Reaction buffer: 20 mM Hepes (pH 7.5), 10 mM MgCl2, 1 mM EGTA, 0.02% Brij35, 0.02 mg/ml BSA, 0.1 mM Na3VO4, 2 mM DTT, 1% DMSO
*Required cofactors are added individually to each kinase reaction
(i) Prepare indicated substrate in freshly prepared Base Reaction Buffer
(ii) Deliver any required cofactors to the substrate solution above
(iii) Deliver indicated kinase into the substrate solution and gently mix
(iv) Deliver compounds in DMSO into the kinase reaction mixture
(v) Deliver ^33P-ATP (specific activity 0.01 μCi/μl final) into the reaction mixture to initiate the reaction.
(vi) Incubate kinase reaction for 120 minutes at room temperature
(vii) Reactions are spotted onto P81 ion exchange paper (Whatman #3698-915)
(viii) Wash filters extensively in 0.1% phosphoric acid.
(ix) Dry filters and measure counts in scintillation counter
Recombinant full length construct, N-terminal GST tagged, purified from insect cells.
No special measures were taken to activate this kinase.
Final concentration in assay=0.5 nM
Peptide sequence: [[…]]
Final concentration in assay=20 μM
No additional cofactors are added to the reaction mixture

A further series deals with HT29 cells. The series is described as follows: Sensitisation of HT29 cells to SN38 (Alamar blue cell growth). As to conditions: for fold shift in the IC50 value of SN38: HT29 cells. The format is cell-based, human. The procedure: Studies were carried out to test the sensitising effect of compounds of the invention on the ability of the DNA damaging compound 7-ethyl-10-hydroxycamptothecin (SN38), an active metabolite of the anti-cancer drug irinotecan, to inhibit cell growth in HT29 cells.
(§1) The following protocol was used:
(a) HT29 cells were seeded in 96-well plates at a concentration of 3000 cells per well and allowed to adhere overnight prior to addition of compound or vehicle control.
(b) SN38 was prepared from a 10 mM DMSO stock to give a final concentration range of 1 μM, 300 nM, 100 nM, 30 nM, 10 nM, 3 nM, 1 nM, and vehicle control.
(c) Test compounds were prepared from 10 mM DMSO stocks to typically give a final concentration range of 3 μM, 1 μM, 0.3 μM. 0.1 μM, 0.03 μM and vehicle control. The final DMSO content was 0.4%.
(d) Test compounds were incubated with the cells for 72 h at 37° C. 5% CO2 in a humidified atmosphere.
(e) Alamar blue 10% (v/v) was then added and incubated for a further 6 h, and fluorescent product detected using the BMG FLUOstar plate reader.
(f) Data were analysed using a 4-parameter logistic equation in GraphPad Prism.
Sensitisation is determined by the enhancement in IC50 of SN38 by the addition of the Chk-1 kinase inhibitor. In the protocol described above, the IC50 for SN-38 is determined the presence of varying doses of the Chk-1 inhibitor. The fold shift represents a decrease in IC50 for SN-38 at a dose of Chk-1 inhibitor that has no effect by itself.
In general terms: Alamar Blue is a resazurin reagent that responds to reducing activity.

Another series has as its system MOLM-13 cells. As to the kind of experiment: Inhibition of cell growth in MOLM-13 cells (Alamar blue). The format is cell-based. As to conditions: Homo sapiens, 72 h incubation. On the procedure: (§2) Studies were carried out to test the effect of compounds on the inhibition of cell growth in MOLM-13 and MV4-11 cells.
as §1
(§3) (a) Cells were seeded in 96-well plates at cell densities of 2500/well (MOLM-13) and 10,000/well (MV4-11). Cells were then incubated overnight prior to addition of compound or vehicle control.
(§4) (b) Test compounds were prepared from 10 mM DMSO stocks to give a final concentration range of 10 μM, 3 μM, 1 μM, 0.3 μM, 0.1 μM, […], […] and vehicle control. The DMSO content was constant at 0.1%.
(§5) (c) Test compounds were incubated with the cells for 72 h at 37° C. 5% CO2 in a humidified atmosphere.
(§6) (d) Alamar blue 10% (v/v) was then added and incubated for a further 4 h, and fluorescent product detected using the BMG FLUOstar plate reader.
(§7) (e) Media only background values were subtracted and the data analysed using a 4-parameter logistic equation in GraphPad Prism.
(§8) From the results obtained by following the above protocol, the IC50 values against MOLM-13 and MV4-11 cells of the compounds of Examples 20, 21, 22, 25, 33, 35, 37, 38, 44, 48, 49, 50, 51, 53, 54 and 55 were determined.

The next series deals with MV4-11 cells. The series is described as follows: Inhibition of cell growth in MV4-11 cells (Alamar blue). It is filed as cell-based. The conditions noted are these: Homo sapiens, 72 h incubation. On the procedure:
as §2, §1, §3, §4, §5, §6, §7, §8

Where [1] appears, read: Chk-1 kinase, Table 3, read-out: IC50.
Setting [2] is: ranges given, read-out: IC50 values against Chk-1 kinase.

pIC50: −log10 of the molar value. Entries after “also recorded” stand apart in the source; their conditions may differ. Where a name gives a salt, the structure may show the parent alone. Read-outs that look alike come from different tables or passages of the source. Bounds are passed on as bounds.

Sequence of Chk-1 kinase (O14757 whole entry): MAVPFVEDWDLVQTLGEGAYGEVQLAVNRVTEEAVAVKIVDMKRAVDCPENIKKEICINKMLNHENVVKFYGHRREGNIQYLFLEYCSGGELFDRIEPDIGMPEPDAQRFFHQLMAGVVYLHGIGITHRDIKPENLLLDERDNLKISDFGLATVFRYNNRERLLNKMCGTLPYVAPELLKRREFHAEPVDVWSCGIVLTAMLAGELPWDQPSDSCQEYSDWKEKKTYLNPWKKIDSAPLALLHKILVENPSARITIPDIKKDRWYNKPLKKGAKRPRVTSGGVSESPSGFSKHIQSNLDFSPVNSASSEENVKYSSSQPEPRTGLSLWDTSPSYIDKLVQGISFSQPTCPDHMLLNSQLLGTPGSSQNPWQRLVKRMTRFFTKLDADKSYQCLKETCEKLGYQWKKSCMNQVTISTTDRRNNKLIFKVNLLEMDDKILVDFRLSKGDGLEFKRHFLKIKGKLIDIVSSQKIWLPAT

A word on the pIC50: it is the negative decadic logarithm of the IC50, by convention in mol/L. In the case of `CN1CCN(c2ccc(CNCCc3ccc(NC(=O)Nc4cnc(C#N)cn4)cc3Cl)cc2)CC1` [Example 35, 1-(3-Chloro-4-{2-[4-(4-methyl-piperazin-1-yl)-benzylamino]-ethyl}-phenyl)-3-(5-cyano-pyrazin-2-yl)-urea], the pIC50 on Chk-1 kinase (setting [1]) was 8.85; at Chk-1 kinase (setting [2]) it was more than 8.00; with MOLM-13 cells it was 5.89; with MV4-11 cells, 5.41. Moreover, in the series on HT29 cells (test compound at 1 μM), the “fold shift in the IC50 value of SN38” value is “two”.

As to `COc1ccccc1CNCCc1cc(OC)c(NC(=O)Nc2cnc(C#N)cn2)cc1Cl` [Example 55, 1-{5-Chloro-2-methoxy-4-[2-(2-methoxy-benzylamino)-ethyl]-phenyl}-3-(5-cyano-pyrazin-2-yl)-urea hydrochloride], the pIC50 was 9.32 at Chk-1 kinase (setting [1]), more than 8.00 on Chk-1 kinase (setting [2]), 7.47 in the series with MOLM-13 cells and 6.60 with MV4-11 cells.

As to `COc1cc(CCNCc2ccc(F)cc2)ccc1NC(=O)Nc1cnc(C#N)cn1` [Example 20, 1-(5-Cyano-pyrazin-2-yl)-3-{4-[2-(4-fluoro-benzylamino)-ethyl]-2-methoxy-phenyl}-urea], the pIC50 is 8.55 at Chk-1 kinase (setting [1]), more than 8.00 on Chk-1 kinase (setting [2]), 6.30 with MOLM-13 cells and 6.09 in the series on MV4-11 cells. Moreover, the “fold shift in the IC50 value of SN38” value in the series with HT29 cells (test compound at 3 μM) is reported as “three; also recorded: greater than ten”.

Regarding `COc1cc(CCNCc2ccc(N3CCN(C)CC3)cc2)c(Cl)cc1NC(=O)Nc1cnc(C#N)cn1` [Example 50, 1-(5-Chloro-2-methoxy-4-{2-[4-(4-methyl-piperazin-1-yl)-benzylamino]-ethyl}-phenyl)-3-(5-cyano-pyrazin-2-yl)-urea hydrochloride], the pIC50 at Chk-1 kinase (setting [1]) is 9.35; at Chk-1 kinase (setting [2]), more than 8.00; with MOLM-13 cells it was 7.15; with MV4-11 cells, 6.51. Further, the “fold shift in the IC50 value of SN38” value in the series with HT29 cells (test compound at 1 μM) was “two”.

With `COc1cc(CCNCc2ccc(N3CCN(C)CC3)cc2)ccc1NC(=O)Nc1cnc(C#N)cn1` [Example 51, 1-(5-Cyano-pyrazin-2-yl)-3-(2-methoxy-4-{2-[4-(4-methyl-piperazin-1-yl)-benzylamino]-ethyl}-phenyl)-urea], the pIC50 is 8.48 on Chk-1 kinase (setting [1]), more than 8.00 on Chk-1 kinase (setting [2]), 6.62 with MOLM-13 cells and 6.07 with MV4-11 cells.

For the compound `COc1cc(CCNCc2ccc(F)cc2)c(Cl)cc1NC(=O)Nc1cnc(C#N)cn1` [Example 37, 1-{5-Chloro-4-[2-(4-fluoro-benzylamino)-ethyl]-2-methoxy-phenyl}-3-(5-cyano-pyrazin-2-yl)-urea hydrochloride], the pIC50 at Chk-1 kinase (setting [1]) was 8.80; at Chk-1 kinase (setting [2]), more than 8.00; in the series with MOLM-13 cells, 6.24; in the series on MV4-11 cells, 6.00. Moreover, the “fold shift in the IC50 value of SN38” value in the series on HT29 cells (test compound at 1 μM) is given as “two”; in the series with HT29 cells (test compound at 3 μM), “greater than ten”.

`N#Cc1cnc(NC(=O)Nc2ccc(CCNCc3ccc(N4CCOCC4)cc3)c(Cl)c2)cn1` [Example 25, 1-{3-Chloro-4-[2-(4-morpholin-4-yl-benzylamino)-ethyl]-phenyl}-3-(5-cyano-pyrazin-2-yl)-urea]: the pIC50 at Chk-1 kinase (setting [1]) was 7.74; at Chk-1 kinase (setting [2]) it was 7.00 to 8.00; in the series with MOLM-13 cells, 5.75; in the series with MV4-11 cells it was 5.77.

On to `COc1ccc([C@H](C)NCCc2cc(OC)c(NC(=O)Nc3cnc(C#N)cn3)cc2Cl)cc1` [Example 53, 1-(5-Chloro-2-methoxy-4-{2-[(S)-1-(4-methoxy-phenyl)-ethylamino]-ethyl}-phenyl)-3-(5-cyano-pyrazin-2-yl)-urea hydrochloride], for which the pIC50 at Chk-1 kinase (setting [1]) was 9.25; at Chk-1 kinase (setting [2]), more than 8.00; with MOLM-13 cells, 7.52; in the series with MV4-11 cells it was 6.54.

Take `COc1cc(CCN[C@@H](C)c2ccc(F)cc2)ccc1NC(=O)Nc1cnc(C#N)cn1` [Example 44, 1-(5-Cyano-pyrazin-2-yl)-3-(4-{2-[(S)-1-(4-fluoro-phenyl)-ethylamino]-ethyl}-2-methoxy-phenyl)-urea]: the pIC50 on Chk-1 kinase (setting [1]) was 8.29; at Chk-1 kinase (setting [2]), more than 8.00; in the series on MOLM-13 cells, 6.07; in the series with MV4-11 cells, 6.02.

In the case of `COc1cc(OCCNCc2ccc(F)cc2)ccc1NC(=O)Nc1cnc(C#N)cn1` [Example 21, 1-(5-Cyano-pyrazin-2-yl)-3-{4-[2-(4-fluorobenzylamino)-ethoxy]-2-methoxy-phenyl}-urea], the pIC50 at Chk-1 kinase (setting [1]) is 8.39; at Chk-1 kinase (setting [2]), more than 8.00; in the series with MOLM-13 cells, 5.89; in the series on MV4-11 cells, 5.89.

As to `COc1cc(CCNCc2ccc3c(c2)OCO3)c(Cl)cc1NC(=O)Nc1cnc(C#N)cn1` [Example 54, 1-(4-{2-[(Benzo[1,3]-dioxol-5-ylmethyl)-amino]-ethyl}-5-chloro-2-methoxy-phenyl)-3-(5-cyano-pyrazin-2-yl)-urea hydrochloride], the pIC50 is more than 8.00 on Chk-1 kinase (setting [2]), 7.85 in the series with MOLM-13 cells and 7.28 with MV4-11 cells.

As for `N#Cc1cnc(NC(=O)Nc2ccc(OCCNCc3ccc(F)cc3)c(Cl)c2)cn1` [Example 26, 1-{3-Chloro-4-[2-(4-fluoro-benzylamino)-ethoxy]-phenyl}-3-(5-cyano-pyrazin-2-yl)-urea], the pIC50 at Chk-1 kinase (setting [1]) is 7.68; at Chk-1 kinase (setting [2]), 7.00 to 8.00. In addition, the “fold shift in the IC50 value of SN38” value in the series on HT29 cells (test compound at 3 μM) was “three”.

Take `N#Cc1cnc(NC(=O)Nc2ccc(CCNCc3cccc(N4CCOCC4)c3)c(Cl)c2)cn1` [Example 39, 1-{3-Chloro-4-[2-(3-morpholin-4-yl-benzylamino)-ethyl]-phenyl}-3-(5-cyano-pyrazin-2-yl)-urea]: on Chk-1 kinase (setting [1]), the pIC50 was 7.92. For the same compound, the “fold shift in the IC50 value of SN38” value with HT29 cells (test compound at 3 μM) was “three”.

Turning to `COc1ccc(CNCc2ccc(NC(=O)Nc3cnc(C#N)cn3)c(OC)c2)cc1` [Example 60, 1-(5-Cyano-pyrazin-2-yl)-3-{2-methoxy-4-[(4-methoxy-benzylamino)-methyl]-phenyl}-urea], the pIC50 at Chk-1 kinase (setting [1]) is 8.80; at Chk-1 kinase (setting [2]) it was more than 8.00. Besides, the “fold shift in the IC50 value of SN38” value in the series with HT29 cells (test compound at 3 μM) is on record as “three; also recorded: greater than ten”.

Take `N#Cc1cnc(NC(=O)Nc2ccc(CCNCc3ccccc3F)c(Cl)c2)cn1` [Example 23, 1-{3-Chloro-4-[2-(2-fluoro-benzylamino)-ethyl]-phenyl}-3-(5-cyano-pyrazin-2-yl)-urea]: the pIC50 at Chk-1 kinase (setting [1]) is 7.96; on Chk-1 kinase (setting [2]) it was 7.00 to 8.00. Moreover, in the series with HT29 cells (test compound at 3 μM), the “fold shift in the IC50 value of SN38” value is listed as “three; also recorded: greater than ten”.

`N#Cc1cnc(NC(=O)Nc2ccc(CCNCc3ccccc3)cc2)cn1` [Example 1, 1-[4-(2-Benzylamino-ethyl)-phenyl]-3-(5-cyano-pyrazin-2-yl)-urea]: the pIC50 is 6.70 at Chk-1 kinase (setting [1]); 7.00 at Chk-1 kinase (comparative tests, Example 70, read-out: Chk-1 IC50); 6.00 to 7.00 at Chk-1 kinase (setting [2]). The “fold improvement in potency against Chk-1 enzyme” value at Chk-1 kinase (relative to Example 30 (alkylene chain 1 to 2 carbon atoms)) is on record as approximately 3 fold. For the same compound, the “fold shift in the IC50 value of SN38” value in the series on HT29 cells (test compound at 3 μM) was “three”. Also, in the series with HT29 cells (SN38 sensitisation assay in HT-29 cells, compound at 3 μM), the Cell potentiation factor is reported as 4 fold.
